Measurements published in ChEMBL document CHEMBL2150979, “Xentrivalpeptides A-Q: depsipeptide diversification in Xenorhabdus” (J Nat Prod, 2012).
The source made the active and inactive calls. The calls are words filed in the database; no cut-off is given here.

Columns and labels:
[1] = test system: Staphylococcus epidermidis; assay: Antibacterial activity against Staphylococcus epidermidis; assay type: functional, organism-based
Enterococcus faecalis = assay: Antibacterial activity against Enterococcus faecalis; assay type: functional, organism-based
HL-60 = assay: Cytotoxicity against human HL60 cells after 5 days by MTT assay; assay type: functional, cell-based
Escherichia coli = assay: Antibacterial activity against Escherichia coli; assay type: functional, organism-based
Bacillus subtilis = assay: Antibacterial activity against Bacillus subtilis; assay type: functional, organism-based
Pseudomonas aeruginosa = assay: Antibacterial activity against Pseudomonas aeruginosa; assay type: functional, organism-based
Micrococcus luteus = assay: Antibacterial activity against Micrococcus luteus; assay type: functional, organism-based
Staphylococcus aureus = assay: Antibacterial activity against Staphylococcus aureus; assay type: functional, organism-based
Galleria mellonella = assay: Hemocyte cytotoxicity against Galleria mellonella larvae assessed as actin cytoskeletal ruffling at 100 ug/mL after 4 hrs; assay type: organism-based; conditions: in vivo
Saccharomyces cerevisiae = assay: Antifungal activity against Saccharomyces cerevisiae; assay type: functional, organism-based
L929 = assay: Cytotoxicity against mouse L929 cells after 5 days by MTT assay; assay type: cell-based; conditions: l929, 120 h

SMILES: CC(C)[C@H](NC(=O)Cc1ccccc1)C(=O)N[C@@H]1C(=O)N[C@H](Cc2ccccc2)C(=O)N2CCC[C@H]2C(=O)N[C@@H](C(C)C)C(=O)N[C@@H](C(C)C)C(=O)N[C@@H](C(C)C)C(=O)O[C@@H]1C [XENTRIVALPEPTIDE A]
- Activity [1]: inactive
- Activity (Enterococcus faecalis): inactive
- Activity (HL-60): inactive
- Activity (Escherichia coli): inactive
- Activity (Bacillus subtilis): inactive
- Activity (Pseudomonas aeruginosa): inactive
- Activity (Micrococcus luteus): inactive
- Activity (Staphylococcus aureus): inactive
- Activity (Galleria mellonella): Toxic
- Activity (Saccharomyces cerevisiae): inactive
- Activity (L929): Non-toxic
